Activity calls are given as the source filed them.
Tests used:
[1] = alpha-synuclein stem-loop luciferase translation blockers – H4 neuroglioma cells, luminescence, confirmation (AID 1988); type: functional, cell-based
[2] = tested on: BJ; assay: BJ-TERT-LT-ST fibroblast viability loss – cell-based, RAS-independent, luminescence, dose response (AID 1935); type: functional; conditions: Homo sapiens;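 also: BJ fibroblasts immortalized with TERT plus LT and ST oncogenes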
[3] = tested on: BJ; assay: cells; type: functional, cell-based; conditions: Homo sapiens
[4] = DRD fibroblast viability loss – cell-based, non-viral oncogenic, luminescence, dose response (AID 1934); type: functional; conditions: Homo sapiens
[5] = luciferase reporter signal suppression in cells – H4 neuroglioma cells, luminescence, dose response (AID 1990); type: functional, cell-based
[6] = tested on: BJ; assay: growth inhibition of engineered Ras-driven BJ cells – cell-based, alamar blue fluorescence, cherrypicked samples, dose response (AID 2631); type: functional; conditions: Homo sapiens;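 also: confirmatory dose-response assay in RAS-dependent BJ fibroblasts engineered with TERT, LT and ST, with cytotoxicity read by fluorescence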
[7] = tested on: J774.A1; assay: Confirmation of image-based Screening Assay for Inhibitors of Phagocytosis. [Related pubchem assays (depositor defined):AID1029, AID1643]; type: functional, cell-based; conditions: Mus musculus
[8] = Luminescence Cell-Based Dose Response HTS to Identify Inhibitors of 5'UTR Stem-Loop Driven Prion Protein mRNA Translation in H4 Neuroglioblastoma Cells. [Related pubchem assays: 1827 (Project Summary), 1813 (Primary HTS)]; type: functional
[9] = tested on: BJ; assay: BJ-TERT fibroblast viability loss – cell-based, RAS-independent, luminescence, dose response (AID 1933); type: functional; conditions: Homo sapiens
[10] = HEK-293T viability loss after treatment – luminescence, T-cell screen hits, cytotoxicity control for TCR NF-kB inhibitor project, dose response (AID 489026); type: functional, cell-based;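 also: cells exposed to compound about 14 hours before the viability readout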
[11] = viability loss in HEK293 cells – cell-based, plate reader, cherry-picked samples, cytotoxicity control, dose response (AID 743446); type: functional
[12] = tested on: INS1; assay: INS-1E survival protection against cytokine death – cell-based, luminescence, retest, dose response (AID 449756); type: functional; conditions: Rattus norvegicus;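 also: cell death triggered by IL-1 beta plus TNF-alpha plus IFN-gamma mixture; protective hits raise ATP signal compared with cytokine alone wells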
[13] = blockade of melanocortin 4 receptor signaling – cell-based, plate reader, cherry pick, counter-screen for LGR2 antagonist project, dose response (AID 743444); type: functional;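 also: transfected HEK 293 cells stimulated with alpha-MSH peptide; potency of inhibitors of the alpha-MSH evoked signal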
[14] = A549 cell cytotoxicity, dose response, cytotoxicity control, plate reader, cherry-pick, antagonist series (AID 743412); type: functional, cell-based
[15] = Fluorescence-based cell-based high throughput dose response assay for inhibitors of the interaction of nucleotide-binding oligomerization domain containing 2 (NOD2) and the receptor-interacting serine-threonine kinase 2 (RIPK2).; type: functional; conditions: Homo sapiens
[16] = reduced cellular PGC1a acetyl-lysine signal – cell-based, cherry-picked samples, dose response (AID 720514); type: functional;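 also: potency may reflect raised or lowered acetylation signal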
[17] = biological target: Photoreceptor-specific nuclear receptor (Homo sapiens, UniProt Q9Y5X4); type: functional, cell-based;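 also: CHO-S cells with Gal4-NCOR and VP16-NR2E3 two-hybrid luciferase reporter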
Photoreceptor-specific nuclear receptor, sequence (Q9Y5X4 whole entry, the tested form may be a part): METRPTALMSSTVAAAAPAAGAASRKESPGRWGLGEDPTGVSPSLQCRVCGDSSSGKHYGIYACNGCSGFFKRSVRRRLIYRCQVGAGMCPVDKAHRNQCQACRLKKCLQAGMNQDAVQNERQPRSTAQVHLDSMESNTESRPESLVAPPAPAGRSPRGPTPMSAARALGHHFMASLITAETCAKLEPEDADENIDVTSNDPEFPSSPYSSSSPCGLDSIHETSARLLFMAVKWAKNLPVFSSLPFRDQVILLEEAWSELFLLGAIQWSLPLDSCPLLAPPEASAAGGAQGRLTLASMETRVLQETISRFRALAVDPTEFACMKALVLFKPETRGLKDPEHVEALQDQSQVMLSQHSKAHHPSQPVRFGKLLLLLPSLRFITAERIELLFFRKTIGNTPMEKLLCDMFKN

[18] = blockers of bursicon-stimulated LGR2 cAMP reporter – cell-based, HEK293, CRE-luciferase reporter, cherry pick, set 2, dose response (AID 743343); type: functional;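 also: transfected cells were stimulated with diluted bursicon conditioned medium after compound addition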
[19] = biological target: T1, Sphingosine 1-phosphate receptor 4 (Homo sapiens, UniProt O95977); assay: Late stage fluorescence dose response cell-based screening assay for antagonists of the Sphingosine 1-Phosphate Receptor 4 (S1P4). [Related pubchem assays: 1524 (Confirmation screen (S1P4 antagonists).), 1510 (Primary screen (S1P4 antagonists).), 1853 (Summary AID (S1P4 antagonists).), 1692 (Dose response screen (S1P4 antagonists).)]; type: functional
T1 sequence (O95977 whole entry): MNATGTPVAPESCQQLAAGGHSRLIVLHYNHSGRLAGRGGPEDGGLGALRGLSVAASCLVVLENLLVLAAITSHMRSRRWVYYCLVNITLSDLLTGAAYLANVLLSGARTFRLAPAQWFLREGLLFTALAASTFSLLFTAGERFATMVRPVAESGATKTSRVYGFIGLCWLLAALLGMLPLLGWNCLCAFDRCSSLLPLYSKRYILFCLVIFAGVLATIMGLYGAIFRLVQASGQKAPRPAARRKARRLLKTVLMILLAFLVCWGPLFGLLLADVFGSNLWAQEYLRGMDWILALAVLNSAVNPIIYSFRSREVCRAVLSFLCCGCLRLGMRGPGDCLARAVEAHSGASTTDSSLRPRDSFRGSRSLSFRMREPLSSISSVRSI

[20] = biological target: T1, Sphingosine 1-phosphate receptor 4; assay: Fluorescence dose response cell-based high throughput screening assay for antagonists of the Sphingosine 1-Phosphate Receptor 4 (S1P4). [Related pubchem assays: 1524 (Confirmation in triplicates.), 1510 (Primary screen.)]; type: functional
[21] = viability of PTEN-deleted HCT116 cells – cell-based, HCT116 PTEN knockout, dose response (AID 1047); type: functional;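 also: HCT116 colon tumor cells with PTEN knocked out; cells exposed to compound for 60 hours before readout; potency for loss of cell viability measured by luminescence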
[22] = tested on: H4; assay: Luminescence Cell-Based Dose Response HTS to Identify Activators of 5'UTR Stem-Loop Driven Prion Protein mRNA Translation in H4 Neuroglioblastoma Cells. [Related pubchem assays: 1829 (Project Summary), 1814 (Primary HTS)]; type: functional; conditions: Homo sapiens
[23] = biological target: G-protein coupled receptor 55 (Homo sapiens, UniProt Q9Y2T6); assay: selective activators of receptor GPR55 – imaging, U2OS cells, beta-arrestin-GFP redistribution, primary screen (AID 1961); type: functional
G-protein coupled receptor 55, sequence (Q9Y2T6 whole entry): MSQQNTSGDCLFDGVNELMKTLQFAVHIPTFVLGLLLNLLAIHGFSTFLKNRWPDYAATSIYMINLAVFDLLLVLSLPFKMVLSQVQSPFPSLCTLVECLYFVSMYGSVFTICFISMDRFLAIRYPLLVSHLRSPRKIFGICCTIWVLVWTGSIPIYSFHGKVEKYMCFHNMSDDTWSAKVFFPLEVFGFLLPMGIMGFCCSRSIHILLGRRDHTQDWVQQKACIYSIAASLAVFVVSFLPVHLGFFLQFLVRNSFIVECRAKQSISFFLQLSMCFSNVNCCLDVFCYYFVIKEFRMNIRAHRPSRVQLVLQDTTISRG

[24] = viability of HCT116 lacking mutant beta-catenin – cell-based, human colon tumor, dose response (AID 1045); type: functional;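 also: HCT116 colon tumor cells with beta catenin knocked out; cells exposed to compound for 60 hours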
[25] = biological target: Beta Lactamase (Pseudomonas aeruginosa, UniProt Q932Y6); assay: BLA reporter interference, concentration series – BLA reporter cells, FRET fluorescence, artefact control for NOD2-RIPK2 interaction inhibitor project, dose response (AID 651552); type: functional, cell-based
Beta Lactamase, sequence (Q932Y6 whole entry): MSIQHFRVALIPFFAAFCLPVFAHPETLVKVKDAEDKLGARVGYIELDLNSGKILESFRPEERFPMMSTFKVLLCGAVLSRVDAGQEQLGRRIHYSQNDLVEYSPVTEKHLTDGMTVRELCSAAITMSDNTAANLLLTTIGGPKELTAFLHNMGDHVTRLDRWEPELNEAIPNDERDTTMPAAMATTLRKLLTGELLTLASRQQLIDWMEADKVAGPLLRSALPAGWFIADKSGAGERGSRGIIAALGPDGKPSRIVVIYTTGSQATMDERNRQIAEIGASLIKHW

[26] = Luminescence Cell-Based Dose Confirmation HTS to Identify Activators of 5'UTR Stem-Loop Driven Alpha-Synuclein mRNA Translation in H4 Neuroglioblastoma Cells. [Related pubchem assays: 1829 (Project Summary), 1814 (Primary HTS)]; type: functional
[27] = toxicity toward HepG2 liver cells – cell-based, plate reader, cherry-pick, antagonist series, cytotoxicity control, dose response (AID 743416); type: functional
[28] = Luminescence Cell-Based Dose Response HTS to Identify Activators of Luciferase Translation or Activity in H4 […] Cells. [Related pubchem assays: 1829 (Project Summary), 1814 (Primary HTS)]; type: functional
[29] = biological target: Paired box protein Pax-8 (Homo sapiens, UniProt Q06710); assay: PAX8 transcriptional activity inhibition in RMG-I – RMG-I cells, luciferase, cherry-pick, dose response (AID 687027); type: functional, cell-based;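 also: luciferase reporter driven by Pax8 target thyroperoxidase promoter measured by SteadyGlo luminescence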
Paired box protein Pax-8, sequence (Q06710 whole entry): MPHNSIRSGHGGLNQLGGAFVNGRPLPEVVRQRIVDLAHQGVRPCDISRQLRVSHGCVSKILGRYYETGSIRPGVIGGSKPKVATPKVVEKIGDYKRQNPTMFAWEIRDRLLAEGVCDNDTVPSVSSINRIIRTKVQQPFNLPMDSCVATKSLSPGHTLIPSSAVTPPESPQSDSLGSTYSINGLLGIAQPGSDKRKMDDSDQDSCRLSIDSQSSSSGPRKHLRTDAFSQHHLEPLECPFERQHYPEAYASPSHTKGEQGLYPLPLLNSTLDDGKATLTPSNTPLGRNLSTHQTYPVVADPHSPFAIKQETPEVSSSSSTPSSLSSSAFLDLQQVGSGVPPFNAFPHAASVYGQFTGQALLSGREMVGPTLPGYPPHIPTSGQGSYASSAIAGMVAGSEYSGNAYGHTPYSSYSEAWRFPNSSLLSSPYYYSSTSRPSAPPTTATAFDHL

[30] = biological target: Sphingosine 1-phosphate receptor 1 (Homo sapiens, UniProt P21453); type: functional;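 also: Tango beta-arrestin reporter U2OS cells stimulated with S1P near its EC80; inhibitor potency meaning antagonism of receptor activation by the natural agonist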
Sphingosine 1-phosphate receptor 1, sequence (P21453 whole entry): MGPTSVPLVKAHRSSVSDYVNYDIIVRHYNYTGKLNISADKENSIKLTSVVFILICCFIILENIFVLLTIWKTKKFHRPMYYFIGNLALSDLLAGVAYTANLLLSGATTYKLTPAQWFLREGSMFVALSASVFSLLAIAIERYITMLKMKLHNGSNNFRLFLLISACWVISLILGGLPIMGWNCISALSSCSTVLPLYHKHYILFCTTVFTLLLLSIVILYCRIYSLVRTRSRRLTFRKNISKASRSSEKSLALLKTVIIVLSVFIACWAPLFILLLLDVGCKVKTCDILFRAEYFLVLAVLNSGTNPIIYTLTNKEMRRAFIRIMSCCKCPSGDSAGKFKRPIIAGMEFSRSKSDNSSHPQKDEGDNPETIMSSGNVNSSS

[31] = biological target: DNA dC->dU-editing enzyme APOBEC-3A (Homo sapiens, UniProt P31941); assay: A3A deaminase inhibition for selectivity – biochemical, dose response (AID 504722); type: functional
DNA dC->dU-editing enzyme APOBEC-3A, sequence (P31941 whole entry): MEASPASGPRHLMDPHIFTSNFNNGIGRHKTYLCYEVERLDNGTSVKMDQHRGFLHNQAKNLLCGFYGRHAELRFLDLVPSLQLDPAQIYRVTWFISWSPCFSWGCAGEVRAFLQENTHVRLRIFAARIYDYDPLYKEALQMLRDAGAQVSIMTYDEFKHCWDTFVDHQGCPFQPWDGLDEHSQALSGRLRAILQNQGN

[32] = biological target: DNA dC->dU-editing enzyme APOBEC-3G (Homo sapiens, UniProt Q9HC16); assay: Dose Response confirmation of small molecule APOBEC3G DNA Deaminase Inhibitors via a fluorescence-based single-stranded DNA deaminase assay. [Related pubchem assays (depositor defined):AID493012, AID493028]; type: functional
DNA dC->dU-editing enzyme APOBEC-3G, sequence (Q9HC16 whole entry): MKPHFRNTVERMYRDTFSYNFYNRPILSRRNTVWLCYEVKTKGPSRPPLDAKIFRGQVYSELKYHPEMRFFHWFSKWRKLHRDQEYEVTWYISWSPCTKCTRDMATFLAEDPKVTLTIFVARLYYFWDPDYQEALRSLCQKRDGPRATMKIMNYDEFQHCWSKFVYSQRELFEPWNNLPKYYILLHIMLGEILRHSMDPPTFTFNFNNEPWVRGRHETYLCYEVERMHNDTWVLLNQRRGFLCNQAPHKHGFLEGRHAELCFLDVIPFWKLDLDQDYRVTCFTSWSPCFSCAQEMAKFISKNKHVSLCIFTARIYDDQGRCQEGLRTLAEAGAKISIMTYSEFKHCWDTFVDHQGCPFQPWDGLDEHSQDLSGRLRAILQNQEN

[33] = biological target: Mu-type opioid receptor (Homo sapiens, UniProt P35372); assay: HTS Image-Based Screen for Agonists of the MOR Receptor. [Related pubchem assays (depositor defined):AID1777, AID1785, AID1786, AID2133]; type: functional;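 also: imaging of beta-arrestin GFP recruitment into spots after receptor activation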
Mu-type opioid receptor, sequence (P35372 whole entry): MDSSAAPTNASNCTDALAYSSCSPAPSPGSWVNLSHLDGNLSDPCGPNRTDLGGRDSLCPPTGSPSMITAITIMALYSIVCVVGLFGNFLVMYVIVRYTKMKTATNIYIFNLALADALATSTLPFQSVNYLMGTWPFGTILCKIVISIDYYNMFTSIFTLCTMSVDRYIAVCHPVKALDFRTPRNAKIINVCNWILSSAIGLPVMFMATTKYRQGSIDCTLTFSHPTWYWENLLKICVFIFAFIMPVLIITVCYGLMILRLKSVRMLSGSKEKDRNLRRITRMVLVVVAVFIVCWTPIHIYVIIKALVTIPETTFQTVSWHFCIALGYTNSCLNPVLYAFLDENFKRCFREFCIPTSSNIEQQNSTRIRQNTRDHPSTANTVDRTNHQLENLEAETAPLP

[34] = biological target: T2, Kappa-type opioid receptor (Homo sapiens, UniProt P41145); type: functional
T2 sequence (P41145 whole entry): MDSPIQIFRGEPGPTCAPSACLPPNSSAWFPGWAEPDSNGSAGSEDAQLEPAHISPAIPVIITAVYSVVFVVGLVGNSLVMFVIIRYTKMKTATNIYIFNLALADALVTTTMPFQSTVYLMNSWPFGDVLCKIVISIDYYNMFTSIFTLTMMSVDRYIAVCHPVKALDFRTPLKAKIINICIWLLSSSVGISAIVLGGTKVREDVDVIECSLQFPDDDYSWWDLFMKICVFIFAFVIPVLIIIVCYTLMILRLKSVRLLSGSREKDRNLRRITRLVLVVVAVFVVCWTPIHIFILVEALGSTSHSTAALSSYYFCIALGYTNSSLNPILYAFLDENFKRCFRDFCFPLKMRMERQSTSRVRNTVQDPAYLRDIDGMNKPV

[35] = biological target: T3, Delta-type opioid receptor (Homo sapiens, UniProt P41143); assay: HTS Image-Based Screen for Agonists of the DOR Receptor. [Related pubchem assays (depositor defined):AID1777, AID1786, AID2133]; type: functional
T3 sequence (P41143 whole entry): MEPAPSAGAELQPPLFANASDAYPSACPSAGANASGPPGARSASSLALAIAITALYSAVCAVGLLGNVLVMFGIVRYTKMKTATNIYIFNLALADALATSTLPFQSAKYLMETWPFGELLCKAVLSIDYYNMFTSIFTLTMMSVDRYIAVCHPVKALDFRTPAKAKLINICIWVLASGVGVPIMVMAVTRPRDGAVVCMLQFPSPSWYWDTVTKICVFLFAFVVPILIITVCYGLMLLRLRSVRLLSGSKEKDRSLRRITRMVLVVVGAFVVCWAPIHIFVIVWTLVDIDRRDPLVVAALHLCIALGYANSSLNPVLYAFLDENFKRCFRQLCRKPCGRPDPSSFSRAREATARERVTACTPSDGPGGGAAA

[36] = biological target: T2, Kappa-type opioid receptor; type: functional; remark: listed apart in the source
[37] = biological target: T3, Delta-type opioid receptor; assay: HTS Image-Based Screen for Antagonists of the DOR Receptor. [Related pubchem assays (depositor defined):AID1777, AID1785, AID1786, AID2133]; type: functional

Q: Which EC50 [1] does the source give for `COC(=O)c1[nH]c2c(c1C)C(=O)CC(c1cccs1)C2` (configuration not stated) here?
A: Its EC50 is 0.469 µM (active).

Q: And the EC50 [2]?
A: Its EC50 is 0.873 µM (inconclusive).

Q: And the EC50 [3]?
A: The EC50 was 3.72 µM (inconclusive).

Q: What about the EC50 [4] of the same molecule?
A: The EC50 was 0.912 µM (active).

Q: And the EC50 [5]?
A: The EC50 was 4.98 µM (active).

Q: What about the EC50 [6] of the same molecule?
A: Its EC50 is 0.299 µM (active).

Q: And the IC50 [7]?
A: Its IC50 is 0.116 µM (active).

Q: And the EC50 [8]?
A: The EC50 was 7.34 µM (active).

Q: What about the EC50 [9] of the same molecule?
A: Its EC50 is 1.02 µM (active).

Q: And the IC50 [10]?
A: Its IC50 is > 80 µM (inactive).

Q: For `O=C(NCc1cccnc1)/C(=C\c1ccc(-c2ccc(Cl)c(Cl)c2)o1)S(=O)(=O)c1ccccc1`, which AC50 [11] is on record?
A: Its AC50 is 8.51 µM (active).

Q: And the AC50 [12]?
A: The AC50 was 3.63 µM (active).

Q: And the AC50 [13]?
A: Its AC50 is 7.86 µM (active).

Q: And the AC50 [14]?
A: Its AC50 is 6.6 µM (active).

Q: What about the IC50 [15] of the same molecule?
A: Its IC50 is 4.34 µM (active).

Q: What about the AC50 [16] of the same molecule?
A: Its AC50 is 3.52 µM (active).

Q: And the IC50 [17]?
A: Its IC50 is 4.08 µM (active).

Q: What about the AC50 [18] of the same molecule?
A: Its AC50 is 8.45 µM (active).

Q: And the IC50 [19]?
A: The IC50 was > 50 µM (not active).

Q: What about the IC50 [20] of the same molecule?
A: The IC50 was 0.965 µM (active).

Q: What about the EC50 [21] of the same molecule?
A: The EC50 was 2.92 µM (active).

Q: What about the EC50 [22] of the same molecule?
A: The EC50 was > 120 µM (not active).

Q: What about the EC50 [23] of the same molecule?
A: The EC50 was 1.61 µM (active).

Q: And the EC50 [24]?
A: The EC50 was 2.39 µM (active).

Q: What about the IC50 [25] of the same molecule?
A: Its IC50 is 26.7 µM (inactive).

Q: And the EC50 [26]?
A: The EC50 was > 120 µM (not active).

Q: What about the AC50 [27] of the same molecule?
A: Its AC50 is 7.96 µM (active).

Q: And the EC50 [28]?
A: Its EC50 is > 120 µM (not active).

Q: What about the AC50 [29] of the same molecule?
A: The AC50 was 4.66 µM (active).

Q: What about the IC50 [30] of the same molecule?
A: Its IC50 is 8.81 µM (active).

Q: What does the source list for `Cn1c(S)nnc1-c1ccc(C(C)(C)C)cc1`?
A: IC50 [31]: > 100 µM (inactive); IC50 [32]: 4.79 µM (active)

Q: With `Cc1ccc(Cl)cc1NC(=S)N(Cc1cccs1)C1CCCC1` as the molecule, how does the EC50 [33] read?
A: Its EC50 is > 32 µM (inactive).

Q: What about the EC50 [34] of the same molecule?
A: The EC50 was 13.1 µM.

Q: And the EC50 [35]?
A: Its EC50 is > 32 µM (inactive).

Q: And the EC50 [36]?
A: The EC50 was 14 µM.

Q: And the IC50 [37]?
A: The IC50 was > 32 µM (inactive).

— ChEMBL document CHEMBL1201862, “PubChem BioAssay data set” (2004)
